Measured values as given in patent publication US10028992B2, “Methods of treating muscular dystrophy” (BOARD OF REGENTS OF THE NEVADA SYSTEM OF HIGHER EDUCATION …, priority 2012, dated 2018).

System: α7 integrin promoter
Assay: muscle cell-based assay: α7βgal+/− myoblasts/myotubes, LacZ reporter, β-galactosidase cleavage of FDG
Set-up: species or system mouse; Results in α7+/− β-galactosidase assay: scale not given here
Conditions: Myoblasts
Method in brief: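 Fluorescein generated from FDG by β-galactosidase reports α7 integrin promoter activity in differentiated myoblasts from α7+/− LacZ knock-in pups. Screening hits then went to dose-response, western blotting and a myostatin counterscreen.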

| SMILES | Results in α7+/− β-galactosidase assay (0.5 uM) | Results in α7+/− β-galactosidase assay (1 uM) | Results in α7+/− β-galactosidase assay (5 uM) | Results in α7+/− β-galactosidase assay (10 uM) | Results in α7+/− β-galactosidase assay (20 uM) | Results in α7+/− β-galactosidase assay (40 uM) | Result in α7+/− β-galactosidase assay (0.5 uM) | Result in α7+/− β-galactosidase assay (1 uM) | Result in α7+/− β-galactosidase assay (5 uM) | Result in α7+/− β-galactosidase assay (10 uM) | Result in α7+/− β-galactosidase assay (20 uM) | Result in α7+/− β-galactosidase assay (40 uM) |
| --- | --- | --- | --- | --- | --- | --- | --- | --- | --- | --- | --- | --- |
| CCNC(=O)C(=O)Nc1cc2c3c(c1)CCN3C(=O)CC2 [drawing 690] | 0.05836 | 0.1657 | 0.2771 | 0.06388 | 0.05069 | 0.005609 | – | – | – | – | – | – |
| Cc1cccc(NCC(=O)N/N=C/c2ccccn2)c1 [drawing 691] | 0.1681 | 0.3046 | 0.3928 | 0.1778 | −0.1319 | −0.4037 | – | – | – | – | – | – |
| COc1ccc(CN2CCNC(=O)C2CC(=O)NCCc2c[nH]c3ccccc23)c(OC)c1 (stereo not drawn) [drawing 692] | 0.0135 | 0.04793 | 0.2102 | −0.04499 | −0.02608 | −0.01274 | – | – | – | – | – | – |
| O=c1c2cc(-c3ccccc3)sc2nc2n1N=C(c1ccccc1)CS2 [drawing 693] | −0.04703 | −0.001 | 0.1857 | 0.01009 | 0.0113 | 0.00476 | – | – | – | – | – | – |
| Nc1ncnc(NCc2ccccc2)c1[N+](=O)[O-] [drawing 694] | 0.01911 | 0.00831 | 0.2463 | −0.04019 | −0.00635 | 0.02312 | – | – | – | – | – | – |
| O=CN1CCN(C(=O)CC(c2ccccc2)c2cc(Br)ccc2O)CC1 (stereo not drawn) [drawing 695] | 0.1751 | 0.03283 | 0.07723 | −0.1323 | 0.00725 | −0.04551 | – | – | – | – | – | – |
| Cc1ccc2c(c1)/C(=C/c1ccco1)C(=O)N2 [drawing 696] | 0.2035 | 0.02005 | 0.2293 | 0.07554 | 0.1241 | 0.1026 | – | – | – | – | – | – |
| O=C1CCC(C(=O)N2CCSCC2)CN1Cc1ccc(Cl)cc1 (stereo not drawn) [drawing 697] | 0.1419 | −0.02657 | 0.2626 | 0.4599 | 0.2652 | 0.222 | – | – | – | – | – | – |
| c1ccc(-c2cn3c4c(sc3n2)CCCC4)cc1 [drawing 698] | 0.1572 | 0.06589 | 0.03743 | 0.2239 | −0.06232 | −0.1797 | – | – | – | – | – | – |
| COc1ccccc1CC(=O)Nc1cc(S(=O)(=O)N2CCOCC2)ccc1N1CCOCC1 [drawing 699] | 0.122 | −0.02918 | 0.0982 | 0.2162 | −0.2175 | −0.3265 | – | – | – | – | – | – |
| COc1ccccc1/C=C1\C(=O)Nc2ccccc21 [drawing 700] | 0.2078 | 0.1004 | 0.141 | 0.312 | −0.00605 | −0.06928 | – | – | – | – | – | – |
| CN1C(=O)N(CC(=O)N2CCN(S(=O)(=O)c3ccc(Cl)s3)CC2)C(=O)C12CCCCC2 [drawing 701] | 0.1065 | 0.03367 | 0.1338 | 0.2611 | −0.306 | −0.5075 | – | – | – | – | – | – |
| Cn1cc(CN2CCC(C(=O)Nc3cccc(-c4cscn4)c3)CC2)cn1 [drawing 702] | 0.1618 | 0.05749 | 0.02884 | 0.2457 | −0.3975 | −0.5369 | – | – | – | – | – | – |
| O=C1Cc2ccccc2/C1=C\c1ccc([N+](=O)[O-])cc1 [drawing 703] | 0.04429 | −0.00937 | 0.02036 | 0.1452 | −0.2086 | −0.4972 | – | – | – | – | – | – |
| CCCC(=O)OCC(=O)c1[nH]c(C)c(C(C)=O)c1C [drawing 704] | 0.1272 | 0.03672 | 0.01568 | 0.2296 | −0.2776 | −0.5017 | – | – | – | – | – | – |
| CCO/C(C)=C1\C(=O)Nc2ccccc21 [drawing 705] | −0.00711 | 0.04915 | 0.06742 | 0.09535 | −0.0389 | −0.1063 | – | – | – | – | – | – |
| COc1ccc(C(=O)Nc2ccc(Cl)cn2)cc1Cl [drawing 706] | – | – | – | – | – | – | 0.1451 | 0.1676 | −0.1344 | −0.2645 | −0.7598 | −0.8234 |
| CCOc1ccccc1NC(=O)c1cccc2c1C(=O)N(C1CCCCC1)C2 [drawing 707] | – | – | – | – | – | – | 0.2793 | 0.1772 | −0.01616 | 0.02001 | 0.1258 | 0.02179 |
| CCOC(=O)C1CCCN(C(=O)CNS(=O)(=O)c2ccc(Br)s2)C1 (stereo not drawn) [drawing 708] | – | – | – | – | – | – | −0.01823 | 0.07424 | −0.1417 | −0.1278 | −0.1459 | −0.2189 |
| Cc1nnc(SCC(=O)c2ccc(Br)cc2)s1 [drawing 709] | – | – | – | – | – | – | 0.3789 | 0.2434 | 0.08324 | 0.1001 | 0.111 | −0.07647 |
| Cn1ccc(C(=O)Nc2cccnc2Cl)n1 [drawing 710] | – | – | – | – | – | – | 0.1419 | 0.09145 | 0.0569 | 0.1922 | −0.0349 | −0.1785 |
| CCOC(=O)c1sc(=N)n(-c2ccc(OC)cc2)c1C [drawing 711] | – | – | – | – | – | – | 0.2274 | 0.1661 | −0.01196 | 0.01787 | −0.3971 | −0.6044 |
| COc1c(Cl)cc(/C=C2\C(=O)Nc3ccccc32)cc1Cl [drawing 712] | – | – | – | – | – | – | 0.2725 | 0.2417 | 0.01335 | 0.04886 | 0.1098 | −0.01132 |
| COc1c(Cl)cc(/C=C2\C(=O)Nc3ccccc32)cc1Cl [drawing 713] | – | – | – | – | – | – | 0.3543 | 0.1322 | −0.0815 | −0.2165 | −0.302 | −0.4698 |
| CC(=O)Oc1c(Cl)cc(/C=C2\C(=O)Nc3ccccc32)cc1Cl [drawing 714] | – | – | – | – | – | – | 0.1697 | −0.08406 | 0.02082 | 0.02563 | −0.00439 | −0.1892 |
| CCN(CC)CCNC(=O)c1c(C)[nH]c(CC2C(=O)Nc3ccc(F)cc32)c1C (stereo not drawn) [drawing 715] | – | – | – | – | – | – | −0.1627 | 0.03203 | −0.6776 | −0.9863 | −0.9859 | −0.9872 |
| O=C1Nc2ccccc2/C1=C1\Nc2ccccc2C1=O [drawing 716] | – | – | – | – | – | – | 0.06101 | 0.0859 | −0.394 | −0.2837 | −0.157 | −0.1933 |
| Cc1[nH]c(/C=C2\C(=O)Nc3ccccc32)c(C)c1CCC(=O)O [drawing 717] | – | – | – | – | – | – | 0.01086 | 0.05675 | −0.0938 | −0.1338 | −0.04064 | −0.0832 |
| Cc1cc(C)c(/C=C2\C(=O)Nc3ccccc32)[nH]1 [drawing 718] | – | – | – | – | – | – | 0.03555 | 0.05336 | −0.2683 | −0.3603 | −0.2204 | −0.3534 |
